Source: ChEMBL document CHEMBL6092139, “AChE inhibitory activity of N-substituted natural galanthamine derivatives” (Bioorg Med Chem Lett, 2024)

biological target: Acetylcholinesterase (Homo sapiens, UniProt P22303); assay: Inhibition of AChE (unknown origin) using acetylthiocholine iodide as substrate preincubated for 30 mins followed by substrate addition and measured after 3 mins by DTNB reagent based Ellman's method
Sequence (P22303 whole entry): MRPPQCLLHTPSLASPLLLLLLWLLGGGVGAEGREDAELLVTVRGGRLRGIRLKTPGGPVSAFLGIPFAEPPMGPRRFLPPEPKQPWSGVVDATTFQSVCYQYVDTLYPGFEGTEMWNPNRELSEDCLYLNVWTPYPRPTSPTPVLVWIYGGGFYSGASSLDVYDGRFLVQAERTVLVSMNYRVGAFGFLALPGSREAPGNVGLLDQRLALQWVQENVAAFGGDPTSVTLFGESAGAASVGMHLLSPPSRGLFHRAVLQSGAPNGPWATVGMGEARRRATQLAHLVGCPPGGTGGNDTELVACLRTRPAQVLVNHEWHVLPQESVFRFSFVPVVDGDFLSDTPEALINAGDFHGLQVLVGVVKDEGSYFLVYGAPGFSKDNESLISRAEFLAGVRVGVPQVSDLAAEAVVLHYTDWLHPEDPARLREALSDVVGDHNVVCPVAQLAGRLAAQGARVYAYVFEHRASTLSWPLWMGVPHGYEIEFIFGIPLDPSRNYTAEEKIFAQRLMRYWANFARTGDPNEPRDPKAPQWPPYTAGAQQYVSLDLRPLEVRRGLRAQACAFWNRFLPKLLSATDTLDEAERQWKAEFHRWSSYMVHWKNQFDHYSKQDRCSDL

SMILES	IC50
COc1ccc2c3c1O[C@H]1C[C@@H](O)C=C[C@@]31CCN(C=O)C2	98.8 µM
COc1ccc2c3c1O[C@H]1C[C@@H](O)C=C[C@@]31CCN(C(C)=O)C2	9.8 µM
C=CCN1CC[C@@]23C=C[C@H](O)C[C@@H]2Oc2c(OC)ccc(c23)C1 [N-ALLYLNORGALANTHAMINE]	0.18 µM
